{
  "source": "paper doi:10.1101/2020.08.03.235622v1",
  "about": "(bioRxiv, 2020)",
  "key": {"[1]": {"test_system": "flagella (fliC)", "conditions": "cited from earlier work"}, "[2]": {"test_system": "P. aeruginosa T3SS gene transcription (exoT, exoS, dsbA)", "test": "qPCR of T3SS genes in P. aeruginosa", "assay_type": "cell-based, Pseudomonas aeruginosa", "conditions": "60 μM cyclic peptomer; for transcription of exoT: PA103, low calcium, 50 μM MBX1641, 3 hrs"}, "[3]": {"test_system": "P. aeruginosa PA103 T3SS", "assay_type": "cell-based, Pseudomonas aeruginosa"}, "[4]": {"test_system": "P. aeruginosa PAO1 T3SS (ExoS, ExsE)", "assay_type": "cell-based, Pseudomonas aeruginosa"}, "[5]": {"test_system": "Salmonella SPI-1 T3SS", "assay_type": "cell-based, Salmonella enterica Typhimurium"}, "[6]": {"test_system": "HeLa cells", "test": "Host cell viability by LDH release", "assay_type": "cell-based, human", "conditions": "9 μM, infected HeLa cells"}},
  "note": "pIC50: −log10 of the molar value. Where two headings read alike, the source gives them in different places.",
  "data": [
    {"compound": "O=[N+]([O-])c1cc(CN2CCN(c3ccccc3)CC2)c(O)c2ncccc12", "note": "[INP1750]", "values": [
      {"measurement": "lowest known inhibitory concentration (~), fliC/fla", "setting": "[1]", "result": "~80", "unit": "µM"}
    ]},
    {"compound": "O=[N+]([O-])c1cc(CN2CCN(c3ccc(F)cc3)CC2)c(O)c2ncccc12", "note": "[INP1855]", "values": [
      {"measurement": "lowest known inhibitory concentration (~), fliC/fla", "setting": "[1]", "result": "~30", "unit": "µM"}
    ]},
    {"compound": "CC(Oc1ccc(Cl)cc1Cl)C(=O)NCc1ccc2c(c1)OCO2", "note": "(centres unmarked) [MBX1641, reference compound]", "values": [
      {"measurement": "transcription of exoT", "setting": "[2]", "result": "did"}
    ]},
    {"compound": "Propylamine, Benzylamine, D-Leu, L-Ile, L-Leu, and D-Phe (PBDLLD) (head to tail) [1EpDN]", "values": [
      {"measurement": "pIC50", "setting": "[3]; read-out: IC50, inhibition of T3SS effector (ExoU) secretion in P. aeruginosa", "result": "~5.10"},
      {"measurement": "transcription of exoT", "setting": "[2]", "result": "did not inhibit transcription of exoT"},
      {"measurement": "amount of secreted ExoS", "setting": "[4]", "result": "significantly reduced"}
    ]},
    {"compound": "Propylamine, Benzylamine, L-Leu, L-Ile, D-Leu, and D-Phe (PBLLDD) (head to tail) [4EpDN]", "values": [
      {"measurement": "T3SS inhibitory activity (ExoU secretion), in words", "setting": "[3]", "result": "improved activity"},
      {"measurement": "pIC50", "setting": "[3]; read-out: IC50, ExoU secretion (PA, Psc/Ysc)", "result": 5.41},
      {"measurement": "concentration at which inhibition of SipA secretion was observed", "setting": "[5]", "result": "~ 1.4 μM"},
      {"measurement": "concentration at which inhibition of SipC secretion was observed", "setting": "[5]", "result": "~ 1 μM"},
      {"measurement": "expression of the effectors exoS and exoT", "setting": "[2]; P. aeruginosa PAO1 lacking all known efflux pumps, 3 hrs", "result": "did not affect expression"},
      {"measurement": "amount of secreted ExoS", "setting": "[4]", "result": "significantly reduced"},
      {"measurement": "secretion of the regulator ExsE", "setting": "[4]", "result": "did not significantly impact secretion"},
      {"measurement": "host cell viability as assayed by LDH release", "setting": "[6]", "result": "without affecting host cell viability"}
    ]}
  ]
}
